Counter-ions that a name gives are not always drawn.
Test system: STING activation (IFNβ release) in iBMDMs
Test: IFNβ release ELISA after STING ligand (or LPS) stimulation, iBMDMs
Format: cell-based, mouse
Conditions: iBMDMs, 3′3′-cGAMP 10 μg/ml, 16 hours, compound 10 μM
In short: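 iBMDMs were stimulated with a STING ligand such as 3′3′-cGAMP, or with LPS. Secreted IFNβ in culture medium was measured by commercial mouse or human IFNβ ELISA.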

Molecule | fold increase in IFN-β release [fold] | fold increase in IFN-β release (HCl Trihydrate) [fold]
COC(=O)C1=C(C#N)NC(C)=C(C(=O)OC(C)C)C1c1cccc([N+](=O)[O-])c1 (stereo not shown) [Nilvadipine] | 1.79 | 
CCN(CC)CCCC(C)Nc1nc(C)cc(Nc2ccc3nc(C)cc(N)c3c2)n1 (stereo not shown) [NSC 23766] | 1.30 | 
COc1cc(-c2ncn(/C=C\C(=O)OC(C)C)n2)cc(C(F)(F)F)c1 [KPT-185] | 0.59 | 
COc1cc(F)c(F)c(Nc2ccc(I)cc2F)c1NS(=O)(=O)C1(C[C@H](O)CO)CC1 [Refametinib (RDEA119, Bay 86-9766), Refametinib] | 0.64 | 
C[C@H](Oc1cc(-c2cnn(C3CCNCC3)c2)cnc1N)c1c(Cl)ccc(F)c1Cl [(S)-crizotinib] | 3.05 | 
COc1cc(OC)c(NC(=O)Nc2cc(C)on2)cc1Cl [PNU-120596] | 0.12 | 
N#CC[C@H](C1CCCC1)n1cc(-c2ncnc3[nH]ccc23)cn1 [Ruxolitinib (INCB018424), Ruxolitinib] | 0.20 | 
CCc1cccc2c3c([nH]c12)C(CC)(CC(=O)O)OCC3 (stereo not shown) [Etodolac] | 0.35 | 
COc1cc(OC2CCN(C)CC2)ccc1Nc1ncc2c(n1)n(C1CCCC1)c(=O)n2C [AZ 3146] | 0.10 | 
CCc1cncnc1N1CCN(Cc2nc3ccc(C(F)(F)F)cc3[nH]2)CC1 [PF-4708671] | 2.12 | 
CC(=O)OCC(=O)NCCCOc1cccc(CN2CCCCC2)c1 [Roxatidine Acetate HCl] | 3.16 | 
Cc1ccc(S(=O)(=O)c2ccc([N+](=O)[O-])o2)cc1 [NSC697923] | 0.51 | 
C[C@@H]1COCCN1c1cc(C2(S(C)(=O)=O)CC2)nc(-c2cccc3[nH]ccc23)n1 [AZ20] | 0.32 | 
O=C(NC(Cc1cc(=O)[nH]c2ccccc12)C(=O)O)c1ccc(Cl)cc1 (stereo not shown) [Rebamipide] | 2.54 | 
CC(C)CCNC(=O)[C@H](CC(C)C)NC(=O)[C@H]1O[C@@H]1C(=O)O [Loxistatin Acid (E-64C), Loxistatin Acid] | 0.70 | 
O=C(c1cn(Cc2cncn2Cc2ccc(Br)cc2)cc1-c1cccc2ccccc12)N1CCOCC1 [LB42708] | 1.35 | 
CC(=O)O[C@]1(C(C)=O)CC[C@H]2[C@@H]3C=C(Cl)C4=CC(=O)[C@@H]5C[C@@H]5[C@]4(C)[C@H]3CC[C@@]21C [Cyproterone Acetate] | 1.24 | 
COc1ccc(-n2nc(C(N)=O)c3c2C(=O)N(c2ccc(N4CCCCC4=O)cc2)CC3)cc1 [Apixaban] | 2.83 | 
C[C@]1(c2nc3c(C(N)=O)cccc3[nH]2)CCCN1 [Veliparib (ABT-888), Veliparib] | 0.66 | 
CC(C)C[C@H](NC(=O)[C@H](Cc1ccccc1)NC(=O)c1cnccn1)B(O)O [Bortezomib (PS-341), Bortezomib] | 0.37 | 
C=CCc1cccc(/C=N/NC(=O)CN2CCN(Cc3ccccc3)CC2)c1O [PAC-1] | 0.17 | 
CCNC(=O)[C@H]1O[C@@H](n2cnc3c(N)nc(NCCc4ccc(CCC(=O)O)cc4)nc32)[C@H](O)[C@@H]1O [CGS 21680 HCl] | 2.00 | 
N#CSc1cc(SC#N)c(N)nc1N [PR-619] | 0.79 | 

Molecule | fold increase in IFN-β release [fold] | fold increase in IFN-β release (HCl Trihydrate) [fold]
Cc1cccc(-c2nn3c(c2-c2ccnc4ccc(C(N)=O)cc24)CCC3)n1 [LY2157299] | 2.50 | 
CCCc1nc2c(C)cc(-c3nc4ccccc4n3C)cc2n1Cc1ccc(-c2ccccc2C(=O)O)cc1 [Telmisartan] | 2.26 | 
CCn1c(-c2nonc2N)nc2c(C#CC(C)(C)O)ncc(OC[C@H]3CCCNC3)c21 [GSK690693] | 1.12 | 
Cc1cc2c(cc1CC(=O)c1sccc1S(=O)(=O)Nc1onc(C)c1Cl)OCO2 [Sitaxentan sodium] | 1.16 | 
Nc1nc(N)c2nc(-c3cccc(O)c3)c(-c3cccc(O)c3)nc2n1 [TG100-115] | 2.65 | 
C[C@H](NCc1ccc(OCc2cccc(F)c2)cc1)C(N)=O [Safinamide Mesylate] | 5.18 | 
NC(=O)N1c2ccccc2CC(=O)c2ccccc21 [Oxcarbazepine] | 5.22 | 
CCN1CCC[C@H]1CNC(=O)c1cc(S(N)(=O)=O)ccc1OC [Levosulpiride] | 1.91 | 
Cc1nnc(C(=O)NC(C)(C)c2nc(C(=O)NCc3ccc(F)cc3)c(O)c(=O)n2C)o1 [Raltegravir (MK-0518), Raltegravir] | 4.80 | 
CNc1nc(Nc2cn(C(C)(C)C#N)nc2C)ncc1C(F)(F)F [GNE-0877] | 1.32 | 
N#C[C@@H]1CCCN1C(=O)CNC12CC3CC(CC(O)(C3)C1)C2 [Vildagliptin (LAF-237), Vildagliptin] | 1.04 | 
CC(C)C[C@H](NC(=O)[C@@H](NC(=O)c1cccc(-c2ccccc2)n1)[C@@H](C)O)B(O)O [CEP-18770 (Delanzomib), Delanzomib] | 0.82 | 
CN1CCc2cc3c(cc2[C@H]1[C@@H]1OC(=O)c2c1ccc1c2OCO1)OCO3 [(+)-Bicuculline] | 1.26 | 
O=C(O)/C=C/c1ccc(Cn2ccnc2)cc1 [Ozagrel] | 0.11 | 
O=C(NOC[C@H](O)CO)c1ccc(F)c(F)c1Nc1ccc(I)cc1F [PD0325901] | 0.39 | 
CC1=C(C(=O)Nc2cc3cn[nH]c3cc2F)C(c2ccc(C(F)(F)F)cc2)CC(=O)N1 (stereo not shown) [GSK429286A] | 2.79 | 
KX2-391 | 0.77 | 
COc1ccc(-c2nc3ccc(C4=NNC(=O)CC4C)cc3[nH]2)cc1 (stereo not shown) [Pimobendan] | 1.79 | 
COc1cc(Br)c(Nc2nc(-c3c(C)nc4ncccn34)cs2)c(Br)c1 [PTC-209] | 2.11 | 
C#CC[C@H](c1nc2cc(Cl)ccc2c(=O)n1Nc1ccccc1)N(CCCN)C(=O)c1cccc(Cl)c1F [ARQ 621] | 1.87 | 
COc1ccc2nc([S@@+]([O-])Cc3ncc(C)c(OC)c3C)[nH]c2c1 [Esomeprazole Sodium] | 0.95 | 
CCn1c2ccccc2c2cc(Nc3ccnc(NCCCN4CCOCC4)n3)ccc21 [EHop-016] | 1.69 | 
CC[C@H](C)C(=O)O[C@H]1C[C@@H](C)C=C2C=C[C@H](C)[C@H](CC[C@@H]3C[C@@H](O)CC(=O)O3)[C@H]21 [Lovastatin] | 1.22 | 

Molecule | fold increase in IFN-β release [fold] | fold increase in IFN-β release (HCl Trihydrate) [fold]
COc1cc2c(Nc3ccc(NC(=O)c4ccccc4)cc3)ncnc2cc1OCCCN1CCOCC1 [ZM 447439] | 0.69 | 
CCc1c2c(nc3ccc(OC(=O)N4CCC(N5CCCCC5)CC4)cc13)-c1cc3c(c(=O)n1C2)COC(=O)[C@]3(O)CC [Irinotecan HCl Trihydrate] |  | 0.51
NC(=O)c1ccc(-c2nc(-c3ccccn3)c(-c3ccc4c(c3)OCO4)[nH]2)cc1 [SB431542] | 0.78 | 
Cc1cc(NC(=O)Nc2ccc(N(C)C)cc2)c2cc(F)cc(F)c2n1 [SB408124] | 1.90 | 
CC(C)N(CCCNC(=O)Nc1ccc(C(C)(C)C)cc1)C[C@H]1O[C@@H](n2cc(Br)c3c(N)ncnc32)[C@H](O)[C@@H]1O [SGC 0946] | 1.90 | 
CC(C)(F)C[C@H](N[C@@H](c1ccc(-c2ccc(S(C)(=O)=O)cc2)cc1)C(F)(F)F)C(=O)NC1(C#N)CC1 [Odanacatib (MK-0822), Odanacatib] | 0.90 | 
CC(C)NCC(O)COc1cccc2ccccc12 (stereo not shown) [Propranolol HCl] | 2.07 | 
C#Cc1cccc(Nc2ncnc3cc4c(cc23)OCCOCCOCCO4)c1 [Icotinib] | 0.57 | 
COc1cc(F)c(C(C)C)cc1-c1ccc(C(F)(F)F)cc1CN1C(=O)O[C@H](c2cc(C(F)(F)F)cc(C(F)(F)F)c2)[C@@H]1C [Anacetrapib (MK-0859), Anacetrapib] | 2.12 | 
CCN(c1cc(-c2ccc(CN3CCOCC3)cc2)cc(C(=O)NCc2c(C)cc(C)[nH]c2=O)c1C)C1CCOCC1 [EPZ-6438] | 1.03 | 
CS(=O)(=O)c1cccc(CNc2nc(Nc3ccc4c(c3)CCC(=O)N4)ncc2C(F)(F)F)c1 [PF-573228] | 0.87 | 
C[C@H](N[C@@H](CCc1ccccc1)C(=O)O)C(=O)N1CCC[C@H]1C(=O)O.O.O [Enalaprilat Dihydrate] | 2.71 | 
Cn1c(=O)cc(N2CCC[C@@H](N)C2)n(Cc2cc(F)ccc2C#N)c1=O [Trelagliptin] | 1.80 | 
CCCCCCCCCCCC1=C(O)C(=O)C=C(O)C1=O [Embelin] | 0.17 | 
Cc1c(Cl)cccc1Nc1ccccc1C(=O)O [Tolfenamic Acid] | 2.19 | 
COc1cc2c(cc1O)CC[C@@H]1[C@@H]2CC[C@]2(C)[C@@H](O)CC[C@@H]12 [2-Methoxyestradiol (2-MeOE2), 2-Methoxyestradiol] | 2.62 | 
O=C1NC(=O)C(c2ccccc2[N+](=O)[O-])=C1Nc1ccc(O)c(Cl)c1 [SB415286] | 1.15 | 
C=CC(=O)Nc1cccc(Nc2nc(Nc3ccc(Oc4ccnc(C(=O)NC)c4)cc3)ncc2F)c1 [CNX-774] | 0.73 | 
Cc1[nH]c(/C=C2\C(=O)Nc3ccc(S(=O)(=O)N(C)c4cccc(Cl)c4)cc32)c(C)c1C(=O)N1CCN(C)CC1 [SU11274] | 0.75 | 
CN(C)C(=O)Nc1cccc(-c2ccc(N(C)C)cc2)c1 [Atglistatin] | 0.91 | 
CC(C)C[C@H](NC(=O)CNC(=O)c1cc(Cl)ccc1Cl)B(O)O [MLN2238] | 4.76 | 

— patent US11179412B2, “Methods of treating conditions involving elevated inflammatory response” (University of Pittsburgh—Of the Commonwealth System of …, priority 2017, dated 2021)
